From ChEMBL document CHEMBL2046384, “Discovery of novel benzylidene-1,3-thiazolidine-2,4-diones as potent and selective inhibitors of the PIM-1, PIM-2, and PIM-3 protein kinases” (Bioorg Med Chem Lett, 2012)
≈ marks a conversion by molar mass, not a printed value. Calls of active or inactive are those of the source. The calls are words filed in the database; no cut-off is given here.

Assays:
[1] = target: T1, Serine/threonine-protein kinase pim-1 (Homo sapiens, UniProt P11309); assay: Inhibition of human PIM1 using FITC-(AHX)RSRHSSYPAGT-COOH as substrate after 90 mins by mobility shift assay in presence of 5 mM ATP
Target sequence in this assay (P11309 whole entry): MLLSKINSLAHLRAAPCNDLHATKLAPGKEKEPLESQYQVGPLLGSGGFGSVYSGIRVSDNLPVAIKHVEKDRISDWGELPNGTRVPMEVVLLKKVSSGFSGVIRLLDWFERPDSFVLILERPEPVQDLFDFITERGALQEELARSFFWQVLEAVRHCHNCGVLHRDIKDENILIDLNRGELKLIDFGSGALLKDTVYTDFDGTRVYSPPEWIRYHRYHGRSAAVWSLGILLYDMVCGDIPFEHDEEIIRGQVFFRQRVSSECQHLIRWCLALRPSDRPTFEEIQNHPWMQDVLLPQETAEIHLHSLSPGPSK

[2] = target: T2, Serine/threonine-protein kinase pim-3 (Homo sapiens, UniProt Q86V86); assay: Inhibition of human PIM3 using FITC-(AHX)RSRHSSYPAGT-COOH as substrate after 90 mins by mobility shift assay in presence of 5 mM ATP
[3] = target: T3, Serine/threonine-protein kinase pim-2 (Homo sapiens, UniProt Q9P1W9); assay: Inhibition of human PIM2 using FITC-(AHX)RSRHSSYPAGT-COOH as substrate after 90 mins by mobility shift assay in presence of 50 uM ATP
Target sequence in this assay (Q9P1W9 whole entry): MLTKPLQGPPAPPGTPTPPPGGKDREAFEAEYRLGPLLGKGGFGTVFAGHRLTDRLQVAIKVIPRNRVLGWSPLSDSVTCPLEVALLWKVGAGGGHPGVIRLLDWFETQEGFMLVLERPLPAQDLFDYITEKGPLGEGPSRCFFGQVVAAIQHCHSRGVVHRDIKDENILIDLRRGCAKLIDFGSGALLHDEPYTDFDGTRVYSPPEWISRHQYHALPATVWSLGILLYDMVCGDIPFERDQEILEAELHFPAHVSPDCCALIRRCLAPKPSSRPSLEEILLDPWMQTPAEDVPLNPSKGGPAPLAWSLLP

in vitro = details: rat, liver microsomes
[4] = target: T3, Serine/threonine-protein kinase pim-2; assay: Inhibition of human PIM2 using FITC-(AHX)RSRHSSYPAGT-COOH as substrate after 90 mins by mobility shift assay in presence of 5 mM ATP
Target sequence in this assay (Q9P1W9 whole entry): as above

[5] = target: T1, Serine/threonine-protein kinase pim-1; assay: Inhibition of human PIM1 using FITC-(AHX)RSRHSSYPAGT-COOH as substrate after 90 mins by mobility shift assay in presence of 50 uM ATP
Target sequence in this assay (P11309 whole entry): as the sequence (P11309 whole entry) above

[6] = target: T2, Serine/threonine-protein kinase pim-3; assay: Inhibition of human PIM3 using FITC-(AHX)RSRHSSYPAGT-COOH as substrate after 90 mins by mobility shift assay in presence of 50 uM ATP
[7] = Antiproliferative activity against human MOLM16 cells after 72 hrs by Cell Titer-Blue assay; type: functional; details: MOLM16, 72 h
[8] = Equilibrium solubility of the compound in phosphate buffer after 24 hrs at pH 7.4; type: physicochemical
[9] = target: Voltage-gated inwardly rectifying potassium channel KCNH2 (Homo sapiens, UniProt Q12809); assay: Inhibition of human ERG
Voltage-gated inwardly rectifying potassium channel KCNH2, sequence (Q12809 whole entry): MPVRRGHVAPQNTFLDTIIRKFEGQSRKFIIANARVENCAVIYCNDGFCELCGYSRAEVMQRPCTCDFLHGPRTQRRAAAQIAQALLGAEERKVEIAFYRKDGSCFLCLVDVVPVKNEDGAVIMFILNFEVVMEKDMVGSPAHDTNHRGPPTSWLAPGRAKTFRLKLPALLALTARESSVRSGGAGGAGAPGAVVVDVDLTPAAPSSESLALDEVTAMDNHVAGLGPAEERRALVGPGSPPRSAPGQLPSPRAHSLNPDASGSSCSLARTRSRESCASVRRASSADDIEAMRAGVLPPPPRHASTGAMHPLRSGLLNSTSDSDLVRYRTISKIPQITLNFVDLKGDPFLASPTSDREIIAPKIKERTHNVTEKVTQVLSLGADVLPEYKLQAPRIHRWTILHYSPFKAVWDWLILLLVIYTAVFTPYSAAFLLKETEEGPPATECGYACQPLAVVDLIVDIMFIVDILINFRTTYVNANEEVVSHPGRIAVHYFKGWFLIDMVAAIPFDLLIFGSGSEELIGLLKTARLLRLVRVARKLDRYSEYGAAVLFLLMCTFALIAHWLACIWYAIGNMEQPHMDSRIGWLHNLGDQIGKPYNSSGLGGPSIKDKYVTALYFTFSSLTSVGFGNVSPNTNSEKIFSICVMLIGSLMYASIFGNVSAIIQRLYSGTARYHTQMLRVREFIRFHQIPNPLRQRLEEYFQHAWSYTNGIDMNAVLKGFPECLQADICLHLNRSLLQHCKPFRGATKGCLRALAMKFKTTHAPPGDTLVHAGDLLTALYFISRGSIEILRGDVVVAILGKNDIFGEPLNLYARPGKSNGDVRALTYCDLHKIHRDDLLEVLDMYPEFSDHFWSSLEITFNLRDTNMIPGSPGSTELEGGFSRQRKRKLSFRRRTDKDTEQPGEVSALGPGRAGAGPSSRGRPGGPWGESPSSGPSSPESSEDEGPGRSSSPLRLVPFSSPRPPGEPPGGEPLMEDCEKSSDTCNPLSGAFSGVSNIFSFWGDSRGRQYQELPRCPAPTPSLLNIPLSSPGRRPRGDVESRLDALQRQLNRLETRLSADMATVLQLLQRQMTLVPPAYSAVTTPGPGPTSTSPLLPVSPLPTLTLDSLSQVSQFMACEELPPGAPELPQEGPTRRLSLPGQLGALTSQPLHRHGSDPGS

[10] = Dissociation constant, pKa of the compound; type: physicochemical
[11] = target: Phosphatidylinositol 4,5-bisphosphate 3-kinase catalytic subunit gamma isoform (Homo sapiens) (UniProt P48736); assay: Inhibition of PI3Kgamma at 1 uM
Phosphatidylinositol 4,5-bisphosphate 3-kinase catalytic subunit gamma isoform (Homo sapiens), sequence (P48736 whole entry, looked up, canonical isoform): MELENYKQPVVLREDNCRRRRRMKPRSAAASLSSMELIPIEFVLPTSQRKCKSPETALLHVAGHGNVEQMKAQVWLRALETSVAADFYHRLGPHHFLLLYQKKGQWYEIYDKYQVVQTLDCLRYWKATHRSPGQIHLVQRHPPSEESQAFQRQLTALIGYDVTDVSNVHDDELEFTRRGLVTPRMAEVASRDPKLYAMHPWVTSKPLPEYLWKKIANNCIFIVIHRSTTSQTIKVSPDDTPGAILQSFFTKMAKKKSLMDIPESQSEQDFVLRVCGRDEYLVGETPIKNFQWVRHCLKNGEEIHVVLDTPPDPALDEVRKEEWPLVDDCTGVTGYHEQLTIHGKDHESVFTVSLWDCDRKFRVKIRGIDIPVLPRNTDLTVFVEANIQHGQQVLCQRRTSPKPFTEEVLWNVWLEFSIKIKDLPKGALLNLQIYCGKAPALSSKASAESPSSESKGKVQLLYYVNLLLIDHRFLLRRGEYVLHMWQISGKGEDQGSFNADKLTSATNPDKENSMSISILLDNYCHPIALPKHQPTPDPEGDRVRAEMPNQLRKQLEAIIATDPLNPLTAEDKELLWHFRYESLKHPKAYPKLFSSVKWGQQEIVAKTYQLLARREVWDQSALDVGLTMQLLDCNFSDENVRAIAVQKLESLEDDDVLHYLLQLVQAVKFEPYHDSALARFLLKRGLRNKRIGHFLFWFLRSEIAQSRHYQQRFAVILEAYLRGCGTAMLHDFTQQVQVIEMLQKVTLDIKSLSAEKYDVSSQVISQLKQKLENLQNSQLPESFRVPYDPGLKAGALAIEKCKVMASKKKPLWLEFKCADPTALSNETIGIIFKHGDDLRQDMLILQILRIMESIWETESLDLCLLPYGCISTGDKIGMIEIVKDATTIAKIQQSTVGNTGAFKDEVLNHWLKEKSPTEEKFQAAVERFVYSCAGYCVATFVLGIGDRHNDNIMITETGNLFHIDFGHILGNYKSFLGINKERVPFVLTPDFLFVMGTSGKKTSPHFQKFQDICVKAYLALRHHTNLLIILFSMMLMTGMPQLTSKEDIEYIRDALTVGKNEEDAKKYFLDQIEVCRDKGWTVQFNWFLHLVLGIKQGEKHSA

[12] = target: T2, Serine/threonine-protein kinase pim-3; details: 1 uM
[13] = target: Cyclin-dependent kinase 2 (Homo sapiens) (UniProt P24941); assay: Inhibition of CDK2 at 1 uM
[14] = target: T1, Serine/threonine-protein kinase pim-1; details: 1 uM
Target sequence in this assay (P11309 whole entry, looked up): as the sequence (P11309 whole entry) above

[15] = target: T3, Serine/threonine-protein kinase pim-2; details: 1 uM
Target sequence in this assay (Q9P1W9 whole entry, looked up): as the sequence (Q9P1W9 whole entry) above

**Q.** Which results are given for `CCOc1cccc(/C=C2\SC(=O)NC2=O)c1N1CCC[C@@H](N)C1`?
**A.** IC50 [1]: 0.01 µM; IC50 [2]: 0.006 µM; IC50 [3]: < 0.004 µM; microsomal CLint at 2 µM (in vitro): 12.1 µL/min/mg; IC50 [4]: 0.16 µM; IC50 [5]: < 0.003 µM; IC50 [6]: < 0.003 µM; GI50 [7]: 0.08 µM; solubility thermodynamic at 24 h [8]: > 1000 µM

**Q.** Which IC50 [1] does the source give for `CC(C)Oc1cccc(/C=C2\SC(=O)NC2=O)c1N1CCC[C@@H](N)C1` here?
**A.** < 0.004 µM

**Q.** And the IC50 [2]?
**A.** < 0.003 µM

**Q.** What about the IC50 [3] of the same compound?
**A.** < 0.003 µM

**Q.** What about the microsomal CLint at 2 µM (in vitro) of the same compound?
**A.** < 4.8 µL/min/mg

**Q.** And the IC50 [4]?
**A.** 0.05 µM

**Q.** And the IC50 [5]?
**A.** < 0.003 µM

**Q.** What about the IC50 [6] of the same compound?
**A.** < 0.003 µM

**Q.** What about the GI50 [7] of the same compound?
**A.** 0.02 µM

**Q.** What about the solubility thermodynamic at 24 h [8] of the same compound?
**A.** 378 µM (≈ 137 µg/mL)

**Q.** With `N[C@@H]1CCCN(c2c(/C=C3\SC(=O)NC3=O)cccc2-c2ccccc2)C1` as the compound, how does the microsomal CLint at 2 µM (in vitro) read?
**A.** < 4.8 µL/min/mg

**Q.** What about the IC50 [9] of the same compound?
**A.** > 30 µM

**Q.** And the GI50 [7]?
**A.** 0.02 µM

**Q.** What about the solubility thermodynamic at 24 h [8] of the same compound?
**A.** 263 µM (≈ 99.8 µg/mL)

**Q.** With `O=C1NC(=O)/C(=C/c2ccccc2N2CCNCC2)S1` as the compound, how does the IC50 [3] read?
**A.** 0.18 µM

**Q.** What about the IC50 [5] of the same compound?
**A.** 0.028 µM

**Q.** And the IC50 [6]?
**A.** 0.036 µM

**Q.** With `CC(C)(C)OC(=O)N[C@H]1CCN(c2ccccc2/C=C2\SC(=O)NC2=O)C1` as the compound, how does the IC50 [3] read?
**A.** 15 µM

**Q.** And the IC50 [5]?
**A.** 1.5 µM

**Q.** What about the IC50 [6] of the same compound?
**A.** 3.2 µM

**Q.** Which results are given for `O=C1NC(=O)/C(=C/c2cccc(Cl)c2N2CCNCC2)S1`?
**A.** IC50 [3]: 0.082 µM; IC50 [5]: 0.018 µM; IC50 [6]: 0.026 µM

**Q.** Which results are given for `O=C1NC(=O)/C(=C/c2ccccc2)S1`?
**A.** IC50 [3]: 4.7 µM; pKa [10]: 6.14; IC50 [5]: 0.89 µM; IC50 [6]: 0.73 µM

**Q.** With `N[C@@H]1CCCN(c2c(/C=C3\SC(=O)NC3=O)cccc2-c2ccncc2)C1` as the compound, how does the IC50 [1] read?
**A.** 0.004 µM

**Q.** And the IC50 [2]?
**A.** 0.038 µM

**Q.** And the IC50 [3]?
**A.** 0.019 µM

**Q.** What about the IC50 [4] of the same compound?
**A.** 0.69 µM

**Q.** And the IC50 [5]?
**A.** < 0.003 µM

**Q.** And the IC50 [6]?
**A.** 0.004 µM

**Q.** And the GI50 [7]?
**A.** 2.28 µM

**Q.** And the solubility thermodynamic at 24 h [8]?
**A.** 142 µM (≈ 54 µg/mL)

**Q.** Which IC50 [3] does the source give for `COc1ccc(/C=C2\SC(=O)NC2=O)cc1OC` here?
**A.** 2.5 µM

**Q.** What about the IC50 [5] of the same compound?
**A.** 0.95 µM

**Q.** And the IC50 [6]?
**A.** 0.28 µM

**Q.** With `N[C@@H]1CCCN(c2c(Cl)cccc2/C=C2\SC(=O)NC2=O)C1` as the compound, how does the IC50 [1] read?
**A.** 0.02 µM

**Q.** What about the IC50 [2] of the same compound?
**A.** 0.02 µM

**Q.** What about the IC50 [3] of the same compound?
**A.** 0.005 µM

**Q.** And the microsomal CLint at 2 µM (in vitro)?
**A.** 8.8 µL/min/mg

**Q.** And the IC50 [4]?
**A.** 0.31 µM

**Q.** What about the IC50 [5] of the same compound?
**A.** < 0.003 µM

**Q.** And the IC50 [6]?
**A.** < 0.003 µM

**Q.** What about the GI50 [7] of the same compound?
**A.** 0.19 µM

**Q.** Which IC50 [3] does the source give for `N[C@H]1CCN(c2cc(Cl)ccc2/C=C2\SC(=O)NC2=O)C1` here?
**A.** 0.079 µM

**Q.** What about the IC50 [5] of the same compound?
**A.** 0.012 µM

**Q.** And the IC50 [6]?
**A.** 0.005 µM

**Q.** What does the source list for `N[C@@H]1CCCN(c2c(Br)cccc2/C=C2\SC(=O)NC2=O)C1`?
**A.** inhibition [11]: inactive; IC50 [1]: 0.01 µM; IC50 [2]: 0.01 µM; IC50 [3]: < 0.003 µM; inhibition [12]: > 50%; microsomal CLint at 2 µM (in vitro): < 4.8 µL/min/mg; inhibition [13]: inactive; IC50 [4]: 0.15 µM; IC50 [5]: < 0.003 µM; IC50 [9]: > 30 µM; IC50 [6]: < 0.003 µM; inhibition [14]: > 50%; GI50 [7]: 0.1 µM; inhibition [15]: > 50%; solubility thermodynamic at 24 h [8]: > 720 µM

**Q.** For `COc1cccc(/C=C2\SC(=O)NC2=O)c1N1CCC[C@@H](N)C1`, which IC50 [1] is on record?
**A.** 0.02 µM

**Q.** What about the IC50 [2] of the same compound?
**A.** 0.01 µM

**Q.** And the IC50 [3]?
**A.** 0.005 µM

**Q.** And the microsomal CLint at 2 µM (in vitro)?
**A.** 3.9 µL/min/mg

**Q.** What about the IC50 [4] of the same compound?
**A.** 0.32 µM

**Q.** And the IC50 [5]?
**A.** < 0.003 µM

**Q.** What about the IC50 [6] of the same compound?
**A.** < 0.003 µM

**Q.** What about the GI50 [7] of the same compound?
**A.** 0.21 µM

**Q.** And the solubility thermodynamic at 24 h [8]?
**A.** > 1000 µM

**Q.** For `N[C@@H]1CCCN(c2ccccc2/C=C2\SC(=O)NC2=O)C1`, which IC50 [1] is on record?
**A.** 0.1 µM

**Q.** What about the IC50 [2] of the same compound?
**A.** 0.24 µM

**Q.** And the IC50 [3]?
**A.** 0.014 µM

**Q.** What about the IC50 [4] of the same compound?
**A.** 1.2 µM

**Q.** And the IC50 [5]?
**A.** 0.009 µM

**Q.** What about the IC50 [9] of the same compound?
**A.** > 30 µM

**Q.** What about the IC50 [6] of the same compound?
**A.** 0.009 µM

**Q.** What about the GI50 [7] of the same compound?
**A.** 0.49 µM

**Q.** And the solubility thermodynamic at 24 h [8]?
**A.** 782 µM (≈ 237 µg/mL)

**Q.** Which IC50 [3] does the source give for `N[C@H]1CCN(c2c(Cl)cccc2/C=C2\SC(=O)NC2=O)C1` here?
**A.** 0.025 µM

**Q.** What about the IC50 [5] of the same compound?
**A.** < 0.006 µM

**Q.** What about the IC50 [6] of the same compound?
**A.** < 0.005 µM

**Q.** Which results are given for `CC(C)COc1cccc(/C=C2\SC(=O)NC2=O)c1N1CCC[C@@H](N)C1`?
**A.** IC50 [1]: 0.008 µM; IC50 [2]: < 0.003 µM; IC50 [3]: < 0.004 µM; microsomal CLint at 2 µM (in vitro): 6.9 µL/min/mg; IC50 [4]: 0.14 µM; IC50 [5]: < 0.003 µM; IC50 [9]: 23 µM; IC50 [6]: < 0.003 µM; GI50 [7]: 0.08 µM; solubility thermodynamic at 24 h [8]: 337 µM (≈ 127 µg/mL)

**Q.** Which IC50 [3] does the source give for `CCOc1cc(/C=C2\SC(=O)NC2=O)ccc1O` here?
**A.** 0.16 µM

**Q.** What about the IC50 [5] of the same compound?
**A.** 0.16 µM

**Q.** And the IC50 [6]?
**A.** 0.39 µM

**Q.** With `CN(C)C1CCN(c2ccccc2/C=C2\SC(=O)NC2=O)C1` (configuration not stated) as the compound, how does the IC50 [3] read?
**A.** 0.5 µM

**Q.** And the IC50 [5]?
**A.** 0.061 µM

**Q.** What about the IC50 [6] of the same compound?
**A.** 0.11 µM

**Q.** Which results are given for `N[C@H]1CCN(c2ccccc2/C=C2\SC(=O)NC2=O)C1`?
**A.** IC50 [3]: 0.25 µM; IC50 [5]: 0.036 µM; IC50 [6]: 0.042 µM
